Values joined by “and” are separate entries in the source; they are usually repeats but may differ in a detail not shown here. Equal values may be shown once. Read-outs that look alike come from different tables or passages of the source.
What was measured:
rSNORF33 [1] = molecular target: T1, rSNORF33 (Rattus norvegicus, UniProt Q923Y9); test: Cl- currents in Xenopus oocytes expressing rSNORF33 and CFTR (voltage clamp); type: cell-based; settings: test compound 100 μM except where noted; 100 nM TYR
rSNORF33 [2] = molecular target: T1, rSNORF33; test: Intracellular cAMP release in rSNORF33-transfected COS-7 cells; type: cell-based; set-up: expressed in transfected cells; host or cells: COS-7 (transient); settings: for Agonist activity at cloned rSNORF33 receptor: data not shown
Procedure: The receptor-mediated stimulation or inhibition of cyclic AMP (cAMP) formation may be assayed in cells expressing the mammalian receptors. Cells are plated in 96-well plates or other vessels and preincubated in a buffer such as HEPES buffered saline (NaCl (150 mM), CaCl2 (1 mM), KCl (5 mM), glucose (10 mM)) supplemented with a phosphodiesterase inhibitor such as 5 mM theophylline, with or without protease inhibitor cocktail (For example, a typical inhibitor cocktail contains 2 μg/ml aprotinin, […] leupeptin, and 10 μg/ml phosphoramidon.) for 20 min at 37° C., in 5% CO2. Test compounds are added with or without […] forskolin and incubated for an additional 10 min at 37° C. The medium is then aspirated and the reaction stopped by the addition of 100 mM HCl or other methods. The plates are stored at 4° C. for 15 min, and the cAMP content in the stopping solution is measured by radioimmunoassay. Radioactivity may be quantified using a gamma counter equipped with data reduction software. Specific modifications may be performed to optimize the assay for the receptor or to alter the detection method of cAMP.
COS-7 cells were transiently transfected with rSNORF33 gene using the calcium phosphate method and plated in 96-well plates. 48 hours after transfection, cells were washed twice with Dulbecco's phosphate buffered saline (PBS) supplemented with 10 mM HEPES, 10 mM glucose, 5 mM theophylline and 10 μM pargyline and were incubated in the same buffer for 20 min at 37° C., in […] 5% CO2. Test compounds were added and cells were incubated for an additional 10 min at 37° C. The medium was then aspirated and the reaction stopped by the addition of 100 mM HCl. The plates were stored at −20° C. for 2-5 days. For cAMP measurement, plates were thawed and the cAMP content in each well was measured by radioimmunoassay cAMP Scintillation Proximity Assay (Amersham Pharmacia Biotech). Radioactivity was quantified using microbeta Trilux counter (Wallac).

rSNORF33 [3] = molecular target: T1, rSNORF33; test: [3H]-TYR binding (saturation and displacement) to rSNORF33-transfected COS-7 membranes; set-up: expressed in transfected cells; host or cells: COS-7 (transient); settings: for Ki: rSNORF33 in transfected COS-7 membranes, 2–4 experiments, read-out: Mean Ki ± S.D.M., displacement of [3H]-tyramine
Procedure: (§1) Radioligand binding assays were performed by diluting membranes prepared from cells expressing the receptor (with co-expression of the rat G-protein alpha S subunit for human SNORF33) in 25 mM Gly-Gly buffer (Sigma, pH=7.4 @ 0° C.) containing 5 mM ascorbate and 10 μM pargyline (final protein concentration in assay=100-300 μg/ml). Membranes were then incubated with either [^3H]-TYR (American Radiochemicals, specific activity 60 mCi/μmole) or [^3H]-T (Amersham, specific activity 98 mCi/μmole) in the presence or absence of competing ligands on ice for 30 min in a total volume of 250 μl in 96 well microtiter plates. The bound ligand was separated from free by filtration through GF/B filters presoaked in 0.5% polyethyleneimine (PEI), using Tomtec (Wallac) or Brandel Cell Harvester vacuum filtration device. After addition of Ready Safe (Beckman) scintillation fluid, bound radioactivity was quantitated using a Trilux (Wallac) scintillation counter (approximately 20% counting efficiency of bound counts). Data was fit to non-linear curves using GraphPad Prism.
(§2) In this manner, agonist or antagonist compounds that bind to the receptor may be identified as they inhibit the binding of the labeled ligand to the membrane protein of cells expressing the said receptor. Non-specific binding was defined as the amount of radioactivity remaining after incubation of membrane protein in the presence of 10 μM of the unlabeled amine corresponding to the radioligand used. In equilibrium saturation binding assays, membrane preparations or intact cells transfected with the receptor are incubated in the presence of increasing concentrations of the labeled compound to determine the binding affinity of the labeled ligand. The binding affinities of unlabeled compounds may be determined in equilibrium competition binding assays, using a fixed concentration of labeled compound in the presence of varying concentrations of the displacing ligands.

hSNORF33 = molecular target: T2, hSNORF33 (Homo sapiens, UniProt Q96RJ0); test: [3H]-TYR binding (saturation and displacement) to human SNORF33 COS-7 membranes; set-up: expressed in transfected cells; host or cells: COS-7 (membranes); settings: for Ki: human SNORF33 in transfected COS-7 membranes
T2 sequence (Q96RJ0 1-339): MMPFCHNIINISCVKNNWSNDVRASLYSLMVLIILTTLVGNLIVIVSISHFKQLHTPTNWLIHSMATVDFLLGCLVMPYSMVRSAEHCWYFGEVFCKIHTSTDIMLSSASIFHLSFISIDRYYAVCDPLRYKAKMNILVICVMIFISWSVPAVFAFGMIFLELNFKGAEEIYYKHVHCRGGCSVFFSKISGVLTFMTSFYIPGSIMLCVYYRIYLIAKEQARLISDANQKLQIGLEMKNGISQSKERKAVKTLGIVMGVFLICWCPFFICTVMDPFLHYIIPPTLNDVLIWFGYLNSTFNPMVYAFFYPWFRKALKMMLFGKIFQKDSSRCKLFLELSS
Procedure: as §1, with “[^3H]-TYR and [^3H]-T binding assays were performed essentially as described by Mallard et al. (1992), with minor modifications. Radioligand” for “Radioligand”
as §2

rSNORF33 [4] = molecular target: T1, rSNORF33; test: Cl- currents in Xenopus oocytes expressing rSNORF33 and CFTR (voltage clamp); type: cell-based; settings: for Cl- currents elicited: at 100 μM
Procedure: Female Xenopus laevis (Xenopus-1, Ann Arbor, Mich.) were anesthetized in 0.2% tricain (3-aminobenzoic acid ethyl ester, Sigma Chemical Corp.) and a portion of ovary was removed using aseptic technique (Quick and Lester, 1994). Oocytes were defolliculated, using 3 mg/ml collagenase (Worthington Biochemical Corp., Freehold, N.J.) in a solution containing 82.5 mM NaCl, 2 mM KCl, 1 mM MgCl2 and 5 mM HEPES, pH 7.5, and injected (Nanoject, Drummond Scientific, Broomall, Pa.) 24 h later with 50-70 nl of individual mRNAs or mRNA mixtures (see below).
Elevation of intracellular cAMP is monitored in oocytes by expression of the cystic fibrosis transmembrane conductance regulator (CFTR) whose Cl^−-selective pore opens in response to phosphorylation by protein kinase A (Riordan, 1993). To prepare RNA transcripts for expression in oocytes, a template was created by PCR using 5′ and 3′ primers derived from the published sequence of the CFTR gene (Riordan, 1993). The 5′ primer included the sequence coding for T7 polymerase so that transcripts could be generated directly from the PCR products without cloning. Oocytes were injected with 10 ng of CFTR mRNA in addition to 10-15 ng mRNA for SNORF33. Electrophysiological recordings were made after a 2-3 day incubation at 18° C.
Dual electrode voltage clamp (“GeneClamp”, Axon Instruments Inc., Foster City, Calif.) was performed using 3 M KCl-filled glass microelectrodes having resistances of 1-3 Mohms. Unless otherwise specified, oocytes were voltage clamped at a holding potential of −80 mV. During recordings, oocytes were bathed in continuously flowing (1-3 ml/min) medium containing 96 mM NaCl, 2 mM KCl, 1.8 mM CaCl2, 1 mM MgCl2, and 5 mM HEPES, pH 7.5 (ND96). […] Experiments were carried out at room temperature. All values are expressed as mean±standard error of the mean.

mouse SNORF33 = molecular target: T3, mouse SNORF33 (Mus musculus, UniProt Q923Y8); test: [3H]-TYR binding (saturation and displacement) to mouse SNORF33 COS-7 membranes; settings: for Ki: mouse SNORF33, displacement of [3H]TYR, n=2, read-out: Average Ki
T3 construct: expressed in transfected cells; host or cells: COS-7 (membranes)
Procedure: as §1, with “[^3H]-TYR and [^3H]-T binding assays were performed essentially as described by Mallard et al. (1992), with minor modifications. Radioligand” for “Radioligand”
as §2

[5] = read-out: Mean Ki ± S.D.M., displacement of [3H]-tyramine
[6] = transiently transfected COS-7 cells, 3–8 experiments, read-out: Mean EC50 ± S.E.M., stimulation of rSNORF33 measured by intracellular cAMP release
[7] = read-out: Ki, displacement of [3H]-tyramine

T1 sequence (Q923Y9 whole entry): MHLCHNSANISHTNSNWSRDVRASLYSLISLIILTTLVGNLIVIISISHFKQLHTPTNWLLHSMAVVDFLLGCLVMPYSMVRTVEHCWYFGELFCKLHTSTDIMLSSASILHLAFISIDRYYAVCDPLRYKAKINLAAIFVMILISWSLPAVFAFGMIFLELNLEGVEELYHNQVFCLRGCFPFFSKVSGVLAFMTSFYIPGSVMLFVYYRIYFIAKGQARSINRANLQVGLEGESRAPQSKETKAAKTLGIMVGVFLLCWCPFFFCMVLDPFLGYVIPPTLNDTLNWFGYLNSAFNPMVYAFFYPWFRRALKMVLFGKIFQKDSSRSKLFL
T3 sequence (Q923Y8 whole entry): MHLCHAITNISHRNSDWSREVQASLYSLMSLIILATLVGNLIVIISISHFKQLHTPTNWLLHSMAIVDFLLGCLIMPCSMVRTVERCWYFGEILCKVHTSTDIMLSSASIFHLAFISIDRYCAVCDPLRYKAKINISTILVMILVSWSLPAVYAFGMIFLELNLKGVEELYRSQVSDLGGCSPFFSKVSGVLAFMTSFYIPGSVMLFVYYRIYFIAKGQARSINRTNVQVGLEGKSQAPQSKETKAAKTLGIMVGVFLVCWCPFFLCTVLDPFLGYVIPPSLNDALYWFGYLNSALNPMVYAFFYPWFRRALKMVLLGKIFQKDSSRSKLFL

## CN1C[C@H](CNC(=O)OCc2ccccc2)C[C@@H]2c3cccc4c3c(cn4C)C[C@H]21 [metergoline]
rSNORF33 [1]
  Antagonism of TYR stimulation of rSNORF33: significantly block

## NC[C@H](O)c1ccc(O)c(O)c1 [NE, norepinephrine]
rSNORF33 [2]
  Agonist activity at cloned rSNORF33 receptor: inactive

## COC(=O)[C@H]1[C@H]2C[C@H]3c4[nH]c5ccccc5c4CCN3C[C@H]2CC[C@@H]1O [rauwolscine]
rSNORF33 [1]
  Antagonism of TYR stimulation of rSNORF33: did not significantly inhibit

## COC(=O)[C@@H]1[C@H]2C[C@H]3c4[nH]c5ccccc5c4CCN3C[C@@H]2CC[C@@H]1O [yohimbine]
rSNORF33 [1]
  Antagonism of TYR stimulation of rSNORF33: did not significantly inhibit

## NCCc1cccc(O)c1 [3-OH-PEA]
rSNORF33 [3]
  Ki: 0.529 ± 0.236 µM
hSNORF33; [5]
  Ki: 0.079 ± 0.016 µM

## NCCc1c[nH]c2ccc(O)cc12 [Serotonin (5-HT), 5-Hydroxytryptamine]
rSNORF33 [4]
  Cl- currents elicited: more weakly
rSNORF33 [4]; oocytes expressing rSNORF33 and CFTR, -80 mV, mean ± S.E.M., read-out: Calculated EC50, Cl- current
  EC50: 3.776 ± 0.00317 µM
rSNORF33 [3]
  Ki: 0.976 ± 0.12 µM
rSNORF33 [2]; cAMP assay
  Fold less potent than the three trace amines (TYR, PEA, T) in activating rSNORF33: 70 fold
rSNORF33 [2]; [6]
  EC50: 1.24 ± 0.526 µM

## Cc1ccc(N(CC2=NCCN2)c2cccc(O)c2)cc1 [phentolamine]
rSNORF33 [1]
  Antagonism of TYR stimulation of rSNORF33: agonist effect

## CNCCCN1c2ccccc2CCc2ccccc21 [Desipramine]
rSNORF33 [2]; [6]
  EC50: 4.3 ± 1.87 µM

## c1ccc(C2CC2)c(OCC2=NCCN2)c1 [cirazoline]
rSNORF33 [4]; test compound 100 μM except where noted, 100 nM TYR (EC80)
  Inhibition of the response to TYR: greater than 90%

## CC(COc1ccccc1)N(CCCl)Cc1ccccc1 (stereo not drawn) [Phenoxybenzamine]
rSNORF33 [1]
  Antagonism of TYR stimulation of rSNORF33: irreversible inhibition

## CC(C)NCC(O)COc1cccc2[nH]ccc12 (stereo not drawn) [pindolol]
rSNORF33 [1]
  Antagonism of TYR stimulation of rSNORF33: significantly block

## CC(C)NCC(O)COc1cccc2ccccc12 (stereo not drawn) [propanolol]
rSNORF33 [1]
  Antagonism of TYR stimulation of rSNORF33: significantly block

## NCCc1ccc(O)c(O)c1 [Dopamine (DA), Dopamine]
rSNORF33 [4]
  Cl- currents elicited: more weakly

## CN[C@@H](C)Cc1ccccc1 [Methamphetamine]
rSNORF33 [3]
  Ki: 0.391 ± 0.246 µM
hSNORF33; [5]
  Ki: 0.189 ± 0.102 µM
rSNORF33 [2]; [6]
  EC50: 0.115 ± 0.066 µM

## NCCc1c[nH]c2ccc(F)cc12 [5-Fluoro-Tryptamine]
rSNORF33 [2]; [6]
  EC50: 0.232 ± 0.038 µM

## NCCc1c[nH]cn1 [histamine]
rSNORF33 [2]
  Agonist activity at cloned rSNORF33 receptor: inactive

## Cc1ccc2[nH]cc(CCN)c2c1 [5-Methyl-Tryptamine]
rSNORF33 [2]; [6]
  EC50: 0.752 ± 0.285 µM

## COc1ccc2[nH]cc(CCN)c2c1 [5-Methoxy-Tryptamine]
rSNORF33 [3]
  Ki: 0.209 ± 0.068 µM
rSNORF33 [2]; [6]
  EC50: 0.414 ± 0.161 µM

## C1CNCCN1 [piperazine]
Mouse SNORF33
  Ki: 1.95 µM
rSNORF33 [3]
  Ki: 0.082 µM
hSNORF33; [7]
  Ki: > 10 µM

## NCCC(=O)c1ccccc1N [Kynuramine]
rSNORF33 [3]
  Ki: 0.485 ± 0.009 µM
hSNORF33; [5]
  Ki: 1.39 ± 0.81 µM
rSNORF33 [2]; [6]
  EC50: 0.09 ± 0.02 µM

## CN1CCN2c3ccccc3Cc3ccccc3C2C1 (stereo not drawn) [mianserin]
rSNORF33 [1]
  Antagonism of TYR stimulation of rSNORF33: did not significantly inhibit

## Cl.Cl.Clc1cccc(N2CCNCC2)c1 [m-CPP, 1-(3-chlorophenyl)piperazine dihydrochloride]
Mouse SNORF33
  Ki: 3.55 µM
rSNORF33 [3]
  Ki: 0.083 µM
hSNORF33; human SNORF33, up to 10 μM
  Displacement of [3H]TYR binding: no displacement
hSNORF33; [7]
  Ki: > 10 µM

## CC(N)C(O)c1ccccc1 (stereo not drawn) [Phenylpropanolamine (PPA), Phenylpropanolamine]
rSNORF33 [2]
  EC50: 1.8 ± 1.38 µM

## NCCc1ccc(O)cc1 [[^3H]-TYR]
Mouse SNORF33; at about 15 nM [3H]-TYR, mouse SNORF33
  Specific binding as % of total binding: approximately 94%
Mouse SNORF33; mouse SNORF33 membranes
  Bmax, saturation binding: 1090 fmol/mg protein and 848 fmol/mg protein
rSNORF33 [3]; 20 nM radioligand, rSNORF33
  Specific binding: 90%
rSNORF33 [3]; rSNORF33 COS-7 membranes, n=2
  Bmax, saturation binding: 1400 fmol/mg protein and 1164 fmol/mg protein
  Kd: 0.0125 µM and 0.0148 µM
hSNORF33; at about 15 nM [3H]-TYR, human SNORF33
  Specific binding as % of total binding: ~70%
hSNORF33; human SNORF33 membranes
  Bmax, saturation binding: 440 fmol/mg protein and 603 fmol/mg protein
